Read-outs that look alike come from different tables or passages of the source.
Legend:
A431-B1 cells = test: PrestoBlue viability assay, A431-B1 (A431-ABCB1) cells
A431 cells = test: PrestoBlue viability assay, A431 cells; conditions: Homo sapiens
MES-SA cells = test: PrestoBlue viability assay, MES-SA cells; conditions: Homo sapiens, MES-SA
MES-SA/Dx5 cells = test: PrestoBlue viability assay, MES-SA/Dx5 cells (MDR, P-gp positive); conditions: for IC50: Homo sapiens; for SR_TQ: selectivity ratio MES-SA vs MES-SA/Dx5, with TQ; for SR: selectivity ratio MES-SA vs MES-SA/Dx5, without TQ
[1] = 72 h, read-out: IC50 / µM A431-B1, 72 h incubation
[2] = read-out: pIC50 A431-B1, SARM figure (converted)
[3] = A-431, 72 h, read-out: IC50 / µM A431, 72 h incubation
[4] = A-431, read-out: pIC50 A431, SARM figure (converted)
[5] = 72 h, read-out: IC50 / μM MES-SA, absence of TQ, 72 h incubation
[6] = read-out: IC50 / μM MES-SA (values in parentheses), presence of 1 μM P-gp inhibitor tariquidar (TQ)
[7] = read-out: pIC50 value MES-SA+TQ, MES-SA cells, with TQ (converted)
[8] = read-out: pIC50 value MES-SA, MES-SA cells, without TQ (converted)
[9] = MES-SA/Dx5, 72 h, read-out: IC50 / μM MES-SA/Dx5, absence of TQ, 72 h incubation
[10] = MES-SA/Dx5, read-out: IC50 / μM MES-SA/Dx5 (values in parentheses), presence of 1 μM P-gp inhibitor tariquidar (TQ)
[11] = MES-SA/Dx5, read-out: pIC50 value MES-SA/Dx5 + TQ, MES-SA/Dx5 cells, with TQ (converted)
[12] = MES-SA/Dx5, read-out: pIC50 value MES-SA/Dx5, MES-SA/Dx5 cells, without TQ (converted)
[13] = read-out: pIC50 MES-SA, absence of TQ (converted), SARM figure
[14] = read-out: pIC50 MES-SA_TQ, presence of 1 μM TQ (converted), SARM figure
[15] = MES-SA/Dx5, read-out: pIC50 Dx5_TQ, presence of 1 μM TQ (converted), SARM figure

## CCOCc1cc(CN2CCN(c3ccccc3)CC2)c(O)c2ncccc12 [Compound 40]
A431-B1 cells; [1]
  IC50: 1.94 ± 0.19 µM
A431-B1 cells; [2]
  IC50: 1.91 µM
A431 cells; [3]
  IC50: 6.24 ± 1.95 µM
A431 cells; [4]
  IC50: 5.89 µM
MES-SA cells; [5]
  IC50: 1.27 ± 0.15 µM
MES-SA cells; [6]
  IC50: 1.62 ± 0.005 µM
MES-SA cells; [7]
  IC50: 1.62 µM
MES-SA cells; [8]
  IC50: 1.26 µM
MES-SA/Dx5 cells; [9]
  IC50: 0.34 ± 0.04 µM
MES-SA/Dx5 cells; [10]
  IC50: 1.05 ± 0.1 µM
MES-SA/Dx5 cells; [11]
  IC50: 1.05 µM
MES-SA/Dx5 cells; [12]
  IC50: 0.339 µM
MES-SA/Dx5 cells
  SR_TQ: 1.54
  SR: 3.72

## CCCOCc1cc(CN2CCN(c3ccccc3)CC2)c(O)c2ncccc12 [Compound 41]
A431-B1 cells; [1]
  IC50: 2.41 ± 0.37 µM
A431-B1 cells; [2]
  IC50: 2.4 µM
A431 cells; [3]
  IC50: 5.69 ± 0.76 µM
A431 cells; [4]
  IC50: 5.62 µM
MES-SA cells; [5]
  IC50: 1.45 ± 0.13 µM
MES-SA cells; [6]
  IC50: 1.45 ± 0.07 µM
MES-SA cells; [13]
  IC50: 1.45 µM
MES-SA cells; [14]
  IC50: 1.45 µM
MES-SA cells; [7]
  IC50: 1.45 µM
MES-SA cells; [8]
  IC50: 1.45 µM
MES-SA/Dx5 cells; [9]
  IC50: 0.24 ± 0.03 µM
MES-SA/Dx5 cells; [10]
  IC50: 0.83 ± 0.01 µM
MES-SA/Dx5 cells; [15]
  IC50: 0.955 µM
MES-SA/Dx5 cells; [11]
  IC50: 0.832 µM
MES-SA/Dx5 cells; [12]
  IC50: 0.24 µM
MES-SA/Dx5 cells
  SR_TQ: 1.74
  SR: 6.01

## CC(C)OCc1cc(CN2CCN(c3ccccc3)CC2)c(O)c2ncccc12 [Compound 42]
A431-B1 cells; [1]
  IC50: 1.84 ± 0.48 µM
A431-B1 cells; [2]
  IC50: 1.78 µM
A431 cells; [3]
  IC50: 7.35 ± 2.49 µM
A431 cells; [4]
  IC50: 6.92 µM
MES-SA cells; [5]
  IC50: 1.06 ± 0.19 µM
MES-SA cells; [6]
  IC50: 1.01 ± 0.16 µM
MES-SA cells; [7]
  IC50: 1 µM
MES-SA cells; [8]
  IC50: 1.05 µM
MES-SA/Dx5 cells; [9]
  IC50: 0.25 ± 0.05 µM
MES-SA/Dx5 cells; [10]
  IC50: 0.66 ± 0.13 µM
MES-SA/Dx5 cells; [11]
  IC50: 0.646 µM
MES-SA/Dx5 cells; [12]
  IC50: 0.245 µM
MES-SA/Dx5 cells
  SR_TQ: 1.54
  SR: 4.24

## Oc1c(CN2CCN(c3ccccn3)CC2)cc(Cl)c2cccnc12 [Compound 43]
A431-B1 cells; [1]
  IC50: 8.06 ± 2.89 µM
A431-B1 cells; [2]
  IC50: 7.59 µM
A431 cells; [3]
  IC50: 9.41 ± 1.41 µM
A431 cells; [4]
  IC50: 9.33 µM
MES-SA cells; [5]
  IC50: 2.19 ± 0.12 µM
MES-SA cells; [6]
  IC50: 2.19 ± 0.17 µM
MES-SA cells; [13]
  IC50: 2.19 µM
MES-SA cells; [14]
  IC50: 2.19 µM
MES-SA cells; [7]
  IC50: 2.19 µM
MES-SA cells; [8]
  IC50: 2.19 µM
MES-SA/Dx5 cells; [9]
  IC50: 0.33 ± 0.05 µM
MES-SA/Dx5 cells; [10]
  IC50: 1.23 ± 0.05 µM
MES-SA/Dx5 cells; [12]
  IC50: 0.331 µM
MES-SA/Dx5 cells
  SR_TQ: 1.78
  SR: 6.55

## Oc1c(CN2CCN(c3ccc(F)cc3)CC2)cc(Cl)c2cccnc12 [Compound 44]
A431-B1 cells; [1]
  IC50: 3.25 ± 0.94 µM
A431-B1 cells; [2]
  IC50: 3.09 µM
A431 cells; [3]
  IC50: 4.04 ± 0.39 µM
A431 cells; [4]
  IC50: 3.98 µM
MES-SA cells; [5]
  IC50: 1.61 ± 0.3 µM
MES-SA cells; [6]
  IC50: 1.75 ± 0.16 µM
MES-SA cells; [7]
  IC50: 1.74 µM
MES-SA cells; [8]
  IC50: 1.58 µM
MES-SA/Dx5 cells; [9]
  IC50: 0.25 ± 0.01 µM
MES-SA/Dx5 cells; [10]
  IC50: 0.65 ± 0.05 µM
MES-SA/Dx5 cells; [11]
  IC50: 0.646 µM
MES-SA/Dx5 cells; [12]
  IC50: 0.245 µM
MES-SA/Dx5 cells; fraction of IC50 in P-gp negative vs positive cells, presence of 1 μM TQ
  SR (MES-SA_TQ / Dx5_TQ) (values in parentheses): 2.70
MES-SA/Dx5 cells
  SR_TQ: 2.7
  SR: 6.56

## CCOC(=O)C1CCN(Cc2cc(Cl)c3cccnc3c2O)CC1 [Compound 49]
A431-B1 cells; [1]
  IC50: 1.99 ± 0.25 µM
A431-B1 cells; [2]
  IC50: 2 µM
A431 cells; [3]
  IC50: 8.57 ± 2.94 µM
A431 cells; [4]
  IC50: 8.13 µM
MES-SA cells; [5]
  IC50: 1.78 ± 0.12 µM
MES-SA cells; [6]
  IC50: 1.7 µM
MES-SA cells; [7]
  IC50: 1.7 µM
MES-SA cells; [8]
  IC50: 1.78 µM
MES-SA/Dx5 cells; [9]
  IC50: 0.18 ± 0.03 µM
MES-SA/Dx5 cells; [10]
  IC50: 0.98 µM
MES-SA/Dx5 cells; [11]
  IC50: 0.977 µM
MES-SA/Dx5 cells; [12]
  IC50: 0.178 µM
MES-SA/Dx5 cells
  SR_TQ: 1.73
  SR: 9.91

## Oc1c(CN2CCCCCC2)cc(Cl)c2cccnc12 [Compound 53]
A431-B1 cells; [1]
  IC50: 2.94 ± 1.69 µM
A431-B1 cells; [2]
  IC50: 2.57 µM
A431 cells; [3]
  IC50: 5.57 ± 1.08 µM
A431 cells; [4]
  IC50: 5.5 µM
MES-SA cells; [5]
  IC50: 2.76 ± 0.14 µM
MES-SA cells; [6]
  IC50: 2.64 ± 0.27 µM
MES-SA cells; [7]
  IC50: 2.63 µM
MES-SA cells; [8]
  IC50: 2.75 µM
MES-SA/Dx5 cells; [9]
  IC50: 0.33 ± 0.06 µM
MES-SA/Dx5 cells; [10]
  IC50: 2 ± 0.19 µM
MES-SA/Dx5 cells; [11]
  IC50: 2 µM
MES-SA/Dx5 cells; [12]
  IC50: 0.324 µM
MES-SA/Dx5 cells
  SR_TQ: 1.32
  SR: 8.4

## Cc1ccccc1N1CCN(Cc2ccc(O)c3ncccc23)CC1 [Compound 58]
A431-B1 cells; [1]
  IC50: 31.2 µM
A431-B1 cells; [2]
  IC50: 30.9 µM
A431 cells; [3]
  IC50: 23.3 µM
A431 cells; [4]
  IC50: 23.4 µM
MES-SA cells; [5]
  IC50: 5.84 ± 1.02 µM
MES-SA cells; [6]
  IC50: 5.78 ± 0.49 µM
MES-SA cells; [13]
  IC50: 5.75 µM
MES-SA cells; [14]
  IC50: 5.75 µM
MES-SA cells; [7]
  IC50: 5.75 µM
MES-SA cells; [8]
  IC50: 5.75 µM
MES-SA/Dx5 cells; [9]
  IC50: 3.01 ± 0.58 µM
MES-SA/Dx5 cells; [10]
  IC50: 3.02 ± 0.01 µM
MES-SA/Dx5 cells; [12]
  IC50: 2.95 µM
MES-SA/Dx5 cells
  SR_TQ: 1.91
  SR: 1.94

## Oc1c(C(c2ccccn2)N2CCCC2)ccc2cccnc12 (stereo not shown) [Compound 84]
A431-B1 cells; [2]
  IC50: 9.55 µM
A431 cells; [4]
  IC50: 41.7 µM
MES-SA cells; [5]
  IC50: 17.2 ± 1.86 µM
MES-SA cells; [8]
  IC50: 17 µM
MES-SA/Dx5 cells; [9]
  IC50: 10.2 ± 0.6 µM
MES-SA/Dx5 cells; [12]
  IC50: 10.2 µM
MES-SA/Dx5 cells
  SR: 1.69

## Oc1c(C(c2ccccn2)N2CCCC2)cc(Cl)c2cccnc12 (stereo not shown) [Compound 90]
A431-B1 cells; [2]
  IC50: 13.2 µM
A431 cells; [4]
  IC50: 49 µM
MES-SA cells; [5]
  IC50: 12 ± 1.5 µM
MES-SA cells; [7]
  IC50: 5.89 µM
MES-SA cells; [8]
  IC50: 12 µM
MES-SA/Dx5 cells; [9]
  IC50: 6.3 ± 0.15 µM
MES-SA/Dx5 cells; [11]
  IC50: 3.31 µM
MES-SA/Dx5 cells; [12]
  IC50: 6.31 µM
MES-SA/Dx5 cells
  SR_TQ: 1.78
  SR: 1.91

## Oc1c(C(c2ccncc2)N2CCCCC2)ccc2cccnc12 (stereo not shown) [Compound 96]
A431-B1 cells; [2]
  IC50: 4.57 µM
A431 cells; [4]
  IC50: 35.5 µM
MES-SA cells; [5]
  IC50: 22.7 ± 0.86 µM
MES-SA cells; [13]
  IC50: 15.5 µM
MES-SA cells; [14]
  IC50: 13.8 µM
MES-SA cells; [8]
  IC50: 22.9 µM
MES-SA/Dx5 cells; [9]
  IC50: 14 ± 1.5 µM
MES-SA/Dx5 cells; MES-SA/Dx5, read-out: pIC50 Dx5, absence of TQ (converted), SARM figure
  IC50: 8.32 µM
MES-SA/Dx5 cells; [15]
  IC50: 12.6 µM
MES-SA/Dx5 cells; [12]
  IC50: 13.8 µM
MES-SA/Dx5 cells
  SR: 1.62

## Oc1c(C(c2ccccn2)N2CCCCC2)cc(Cl)c2cccnc12 (stereo not shown) [Compound 98]
A431-B1 cells; [2]
  IC50: 24 µM
A431 cells; [4]
  IC50: 50.1 µM
MES-SA cells; [5]
  IC50: 31.9 ± 1.55 µM
MES-SA cells; [7]
  IC50: 33.1 µM
MES-SA cells; [8]
  IC50: 31.6 µM
MES-SA/Dx5 cells; [9]
  IC50: 16.6 ± 0.88 µM
MES-SA/Dx5 cells; [11]
  IC50: 13.5 µM
MES-SA/Dx5 cells; [12]
  IC50: 16.6 µM
MES-SA/Dx5 cells
  SR_TQ: 2.45
  SR: 1.92

## CN1CCN(C(c2ccccn2)c2cc(Cl)c3cccnc3c2O)CC1 (stereo not shown) [Compound 114]
A431-B1 cells; [2]
  IC50: 17.4 µM
A431 cells; [4]
  IC50: 49 µM
MES-SA cells; [5]
  IC50: 16 ± 1.31 µM
MES-SA cells; [8]
  IC50: 15.8 µM
MES-SA/Dx5 cells; [9]
  IC50: 13.9 ± 0.46 µM
MES-SA/Dx5 cells; [12]
  IC50: 13.8 µM
MES-SA/Dx5 cells
  SR: 1.15
